System: rat uterine horn implants in the peritoneal cavity
Experiment: Rat model for endometriosis
Format: in vivo
Conditions: 14 days; for implant volume: FIG. 1; for implant weight: FIG. 2
Excerpt: FIG. 1 compares the mean volume of rat uterine horn implants in the peritoneal cavity of rats before and after 14 days of administration of a cyclooxygenase-2-selective inhibitor.
FIG. 2 compares the in mean weight of rat uterine horn implants in the peritoneal cavity of rats before and after 14 days of administration of a cyclooxygenase-2-selective inhibitor.
Rat Model for Endometriosis:
In this model 5×5 mm sections of rat uterine hom are implanted in the peritoneal cavity (extra uterine endometrial wall) of subject rats. Four weeks after transplantation of the endometrial tissues, rats were anesthetized with Telazol (20 mg/kg, IP, Fort Dodge Animal Health, Fort Dodge, Iowa), Oxymorphone (0.2 mg/kg SC, Henry Schein, Melville, N.Y.) and immobilized on a standard rat operating board. The surgical site was shaved and cleaned using three cycles of Betadine/alcohol or DuraPrep® (3M, St. Paul, Minn.). Using aseptic technique, an incision was made through the skin, SC and muscle layers. The growth of the explant was evaluated for size and acceptance/rejection. On gross examination, the endometrial implants appeared as uni-loculated (occasional as multilobulated) cystic masses filled with clear/light yellowish or dark brown serous fluid. In some instances, at the time of 2nd laparotomy, partial or complete adhesions from connective tissue, mesentry, and bowel to the implants were noted. In those instances, a careful separation was executed, avoiding the rupture the implants. While having a clear vision of the implants, the length, width and height of the implant was measured using a sterile Jameson Caliper (BRI, Rockville, Md.), and documented. The abdominal incisions were closed by using 4-0 chromic gut (Ethicon). The rats were observed until fully ambulatory.
More animals than required for the study were used for surgery. After the 2nd laparotomy, animals were assigned to control or treated groups in an attempt to equalize the endometrium implant size between groups. The rats bearing implant with clear/light yellowish fluid were used in study group selection. The rats bearing implant with dark brown fluid considered as hemorrhagic solid mass were excluded from the study.
Treatment with selected drug therapy started after 1 day of post-surgical recovery. Rats were given the test compound, the cyclooxygenase-2 selective inhibitor Compound A, or vehicle alone or Raloxifene (10 mpk) or Lupron Depot (1 mpk) for a period of 14 days. At the end of the 14-day treatment period, the animals were euthanized at pro-estrus cycle which was confirmed by vaginal smear. Necropsy involved opening the abdomen and evaluating the implant size. The implant and right uterine horn were excised for wet weighing.
Compound A has the following structure: [drawing 1] […]

Question: What does the source list for `CS(=O)(=O)c1ccc(C2COC(=O)C2c2ccc(F)c(F)c2)cc1` (stereo not shown) [Compound A]?
Answer: implant volume (1 mpk, BID by oral gavage): not significant at the 95 percent confidence level; implant weight (1 mpk, BID by oral gavage): not significant at the 95 percent confidence level; implant volume (10 mpk, BD by oral gavage): reduce implant volume and weight to a significant degree at the 95 percent confidence level; implant weight (10 mpk, BD by oral gavage): reduce implant volume and weight to a significant degree at the 95 percent confidence level

Reference: patent US20060173062A1, “Use of selective cyclooxygenase-2 inhibitors for the treatment of endometriosis” (priority 2003, published 2006)
